Results reported in patent US10717981B2, “Therapeutic compositions and methods of making and using the same” (Advanced ReGen Medical Technologies, LLC, priority 2018, dated 2020).

Columns and labels:
aged cells = assay: Clonogenic assay (CFU-GM) of aged cells after miRNA mimic, siRNA or exosome treatment; assay type: cell-based, human; details: overexpression of candidate miRNAs in aged isochronic cultures, vs negative control RNA
Description: Aged TNCs (10×10^6 cells per sample) were nucleofected with microRNA mimics (Qiagen), miRNA inhibitors (Qiagen), negative control siRNA (Qiagen), negative control miRNA inhibitor (Qiagen) or downstream target candidate siRNAs (Origene) using the Amaxa P3 Primary Cell 4D-Nucleofector X Kit (Lonza) on a 4D Nucleofector device (Lonza), according to manufacturer's specific protocol. Briefly, for nucleofection of CD34+ cells used in clonogenic assays, cells were nucleofected with 60 nmol total miRNA mimics, miRNA inhibitors or siRNA using the “human CD34+ cell” program. For nucleofection of T cells used in T cell activation and cell-mediated cytotoxicity assays, cells were nucleofected with 240 nmol total miRNA mimics, miRNA inhibitors or siRNA using the “human unstimulated T cell, high functionality” program.

K562 = assay: Cell-mediated cytotoxicity assay, aged effector cells; assay type: cell-based; details: miRNA formulations in aged cells, vs control RNA
Description: Cell cytotoxicity was determined with the CFSE/7-AAD Cell Cytotoxicity Kit (Cayman Chemical) according to manufacturer's specified instructions. Briefly, the human chronic myelogenous leukemia cell line, K562, (ATCC # CCL-243) was used as target cells. 107 K562 cells were labeled for 15 min with CFSE dye, washed twice and diluted 100-fold for 30 min incubation at 37° C. Cells from 7-day isochronic or heterochronic cultures were used as effectors. Effector and target cells were added to 6-well plates at the following effector-to-target (E:T) ratios: 0:1, 6.25:1, 12.5:1 and 25:1, and cell mixtures incubated for 4 h at 37° C. Cells were harvested and counter-stained with 7-AAD. 50,000 events were acquired on the FACSCalibur flow cytometer, and data analyzed using BD CellQuest Pro™ software. Target cells incubated alone with 7-AAD served as control to calculate spontaneous lysis, while effector cells alone with 7-AAD served as control to detect dead effector cells. Percent lysis was calculated according the following formula: [(cells positive for both CFSE and 7-AAD/total CFSE-labeled cells)*100−spontaneous % lysis]. […]

huNSG mice = test system: huNSG mice
Description: T cell activation was determined using the T Cell Activation/Expansion Kit (Miltenyi). Briefly, anti-biotin MACSiBead Particles were loaded with CD2, CD3, and CD28 antibodies. Cells from 7-day isochronic or heterochronic cultures, or MNCs isolated from huNSG mouse blood by Ficoll-Hypaque density gradient, were incubated with loaded anti-biotin MACSiBead Particles at a 1:2 bead to cell ratio for 72 h to activate T cells. Addition of unloaded MACSiBead Particles served as negative control. After 72 h, cells were fluorescently labeled using CD45-FITC, CD4-PE, CD25-PerCP-Cy5.5 and CD8-APC to determine T cell activation status by flow cytometry.
5-week old, female NOD/scid IL2Rγnull (NSG) mice were purchased from Jackson Labs and housed in an AALAC-accredited facility at Rutgers, N.J. Medical School (Newark, N.J.). The protocol was approved by the Institutional Animal Care and Use Committee, Rutgers School of Biomedical Health Sciences (Newark, N.J.). Mice were acclimated in the Rutgers barrier animal facility for 1 week prior to experimental use. 6-week old mice were subjected to 150 cGy whole body gamma irradiation using a Mark-I cesium irradiator unit. 5 hours post-irradiation, mice were injected i.v. with 5×10^5 human CD34+ cells isolated from aged or young study donor Leukopaks. Engraftment proceeded over 15-19 weeks, with peripheral blood chimerism monitored at 9 and 13 weeks post-transplant. % Chimerism was detected by co-labeling blood with anti-human CD45-APC (HI30) and anti-mouse CD45-FITC (30-F11) for monitoring by flow cytometry. Humanized NSG (huNSG) enrolled in the treatment arm of the transwell-based animal study were given a 2nd i.v. injection of 5×10^5 autologous aged cells from 7-day isochronic (non-restored) or heterochronic (restored) cultures that were CD3-depleted (Miltenyi) prior to transplant, or saline control. The miRNA-based animal study was performed as above, except that the treatment arm utilized autologous aged cells transfected with 60 nmol total of either miR-619 alone, miR-combo (miR-619, -1303, 4497) or control RNA. Transfections utilized the HiPerFect reagent (Qiagen), and cells were transfected for a total of 7 days prior to CD3 depletion and i.v. injection as above. Mice were sacrificed at 14-15 weeks post-transplant, and blood, BM and speen harvested for biochemical, phenotypic and functional analyses. Major organs were also harvested for histological assessment. Tissue embedding, processing and staining were performed by the Digital Imaging and Histology Core of Rutgers-New Jersey Medical School Cancer Center (Newark, N.J.). Histologic findings were confirmed on H&E slides by a board-certified veterinary pathologist.
Detection of senescence associated secretory factors (SASFs) in plasma of huNSG mice was performed using Custom C-Series Human Antibody Arrays (Ray Biotech). Arrays were labeled with antibodies to 68 different factors linked to cellular senescence. Briefly, blood from huNSG mice was pelleted for 10 min at 300 g and plasma supernatant collected in siliconized microfuge tubes for SASF determination. […] Background levels were calculated by incubating the arrays with plasma from non-humanized NSG mice and then subtracting the obtained values from each huNSG sample.
For the T Cell Cytokine Array (Ray Biotech), conditioned media was collected from cells isolated from huNSG peripheral blood that were stimulated as per the T cell activation assay (see above) after 72 h and stored in protein lo-bind tubes. […] For both the custom SASF and T cell cytokine arrays, densitometry was performed using the UN-SCAN-IT densitometry software (Silk Scientific). Hierarchical clustering and heat map generation were perfomed with Heatmapper software.
BM from huNSG were flushed with a 26-gauge needle and collected for subsequent purification of engrafted human cells with the Mouse Cell Depletion Kit (Miltenyi).

Which results are given for “miR-619: miRNA (miR-619-5p), GCUGGGAUUACAGGCAUGAGCC (chemistry not given here; listed as Homo sapiens)”?
aged colony formation (aged cells): significant effect; target lysis (cell-mediated cytotoxicity) (K562): significant increases; SASFs decreased (68 factors linked to the SASP) (huNSG mice; blood plasma, 1.5-fold cutoff, vs control): 51.4%; total SASF expression (huNSG mice; blood plasma, vs control): significant decreases; mean overall survival (huNSG mice; mice receiving aged cells treated with miRNA, 15 weeks after 2nd transplant): 89%; clonogenicity (huNSG mice; normalized to control, compared to heterochronic treatment): more robust; huCD3+ cells in blood (huNSG mice; vs RNA control): increased; huCD4+ cells in blood (huNSG mice; vs RNA control): significantly increased; BM clonogenicity (huNSG mice; vs control): significantly increased; huCD4+/CD8+ ratio in blood (huNSG mice; vs control): increased; huCD8+ cells in blood (huNSG mice; vs control): decreased; human chimerism in BM or blood (huNSG mice; vs control RNA): No significant difference
